Source: US20250034211A1, “C-TERMINAL EXTENDED P53 ACTIVATOR CROSSLINKED PEPTIDOMIMETIC MACROCYCLES AGAINST MDM2/MDMX” (Merck Sharp & Dohme LLC, priority 2021, published 2025)
In brackets after ≈: the same amount, converted by molar mass. Where a SMILES comes first, the peptide text is derived from it. Bridges are numbered along the chain shown (N, C = ends). [ ]: non-standard residue; d: D form. Lys(N3) = [N-]=[N+]=NCCCC[C@H](N)C(=O)O; R8 = C=CCCCCCC[C@@](C)(N)C(=O)O; Cba = N[C@@H](CC1CCC1)C(=O)O; S5 = C=CCCC[C@](C)(N)C(=O)O; βAla = NCCC(=O)O

Key:
[1] = HPLC LogD
[2] = test system: Jump-In T-REx CHO-K1 BLA cells; experiment: Tetracycline beta-lactamase reporter gene assay (counter screen); format: cell-based
Procedure: Based on Jump-In™ T-REx™ CHO-K1 BLA cells and contain a stably integrated β-lactamase under the control of an inducible CMV promoter. Cells were seeded into a 384-well plate a density of 4000 cells per well. Cells were maintained in Dulbecco's Minimal Eagle Medium (DMEM) with 10% fetal bovine serum (FBS), Blasticidin and Penicillin/Streptomycin. The cells were incubated for 24 hours, followed by cell media removal and replacement with Opti-MEM either containing 10% FBS or 0% FBS. Peptides were then dispensed to each well using a liquid handler, ECHO 555 and incubated for 4/16 hours. Final working concentration of DMSO was 0.5%. β-Lactamase activity was detected using the ToxBLAzer Dual Screen (Invitrogen) as per manufacturer's instructions. Measurements were carried out using Envision multiplate reader (Perkin Elmer). Counter Screen activity was defined as the amount of 0-lactamase activity induced by tetracycline.

[3] = biological target: T1, MDM2 (1-125; SEQ ID NO 14) (Homo sapiens, UniProt Q00987); experiment: MDM2 binding assay (fluorescence anisotropy competition, FP)
T1 construct: GST (N); His6 (internal); TEV cleavage site ENLYFQG (internal); made in house; host or cells: E. coli BL21 (DE3) Rosetta T1R
T1 sequence (Q00987 with tags, fused parts or gaps): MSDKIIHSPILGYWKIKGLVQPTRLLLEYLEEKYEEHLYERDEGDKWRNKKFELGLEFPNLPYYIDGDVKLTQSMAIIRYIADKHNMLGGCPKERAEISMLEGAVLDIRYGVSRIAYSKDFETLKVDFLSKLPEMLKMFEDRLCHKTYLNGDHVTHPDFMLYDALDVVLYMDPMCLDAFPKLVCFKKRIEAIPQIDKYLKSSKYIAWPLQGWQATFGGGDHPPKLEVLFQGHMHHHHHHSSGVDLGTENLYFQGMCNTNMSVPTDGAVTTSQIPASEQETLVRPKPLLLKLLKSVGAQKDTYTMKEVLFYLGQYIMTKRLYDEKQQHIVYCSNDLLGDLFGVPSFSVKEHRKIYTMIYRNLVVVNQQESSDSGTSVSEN
Procedure: [P] is the protein concentration (MDM2), [L] is the labeled peptide concentration, r is the anisotropy measured, r0 is the anisotropy of the free peptide, rb is the anisotropy of the MDM2-FAM-labeled peptide complex, Kd is the dissociation constant, [L]t is the total FAM labeled peptide concentration, and [P]t is the total MDM2 concentration. […] The competing molecules were then titrated against the complex of the FAM-labeled peptide and protein. Apparent Kd values were determined by fitting the experimental data to the equations shown below:
[L]st and [L]t denote labeled ligand and total unlabeled ligand input concentrations, respectively. Kd2 is the dissociation constant of the interaction between the unlabeled ligand and the protein. In all competition experiments, it is assumed that [P]t>[L]st, otherwise considerable amounts of free labeled ligand would always be present and would interfere with measurements. […] The FAM-labeled peptide was dissolved in dimethyl sulfoxide (DMSO) at 1 mM and diluted into experimental buffer. Readings were carried out with an Envision Multilabel Reader (PerkinElmer). […] All titrations were carried out in triplicate. Curve-fitting was carried out using Prism 4.0 (GraphPad). […] Negative control titrations of the ligands under investigation were also carried out with the fluorescently labeled peptide (in the absence of MDM2) to ensure no interactions were occurring between the ligands and the FAM-labeled peptide.

[4] = Circular dichroism (CD) helicity; format: physicochemical
Procedure: The dried peptide was reconstituted in a buffer containing 1 mM HEPES pH 7.4 and 5% methanol to a concentration of 1 mM. The peptide sample was placed in a quartz cuvette with a path length of 0.2 cm and a CD spectrum was recorded from 300 to 190 nm at 25° C. using the Chirascan-plus qCD machine (Applied Photophysics). The actual concentration of the peptide was determined by the absorbance of the peptide at […]. An estimate of the secondary structure components of the peptide was carried out by converting the CD spectrum to mean residue ellipticity before deconvoluting using the CDNN software (distributed by Applied Photophysics). All experiments were done in duplicate.

[5] = test system: p53 null Ca Ski; conditions: 72 h, 10% serum
[6] = test system: HCT116 cells; experiment: Lactate dehydrogenase release assay (LDH); format: cell-based
Procedure: HCT116 cells were seeded into a 384-well plate at a density of 8000 cells per well. Cells were maintained in McCoy's 5A Medium with 10% fetal bovine serum (FBS), Blasticidin and Penicillin/Streptomycin. The cells were incubated overnight followed by the removal of cell media and the addition of Opti-MEM Medium without FBS. Cells were then treated with peptides for 4/16 hours in Opti-MEM either in 10% FBS or serum free. Final concentration of DMSO was 0.5%. Lactate dehydrogenase release was detected using CytoTox-ONE Homogenous Membrane Integrity Assay Kit (Promega) as per manufacturer's instructions. Measurements were carried out using Tecan plate reader. Maximum LDH release was defined as the amount of LDH released induced by the lytic peptide (iDNA79) and used to normalize the results.

[7] = test system: HCT116
[8] = Solubility (PBS, pH 7); conditions: PBS, pH 7

CC(=O)N[C@@H](CCCCN=[N+]=[N-])C(=O)NCCC(=O)N[C@@H](CC(C)C)C(=O)N[C@H](C(=O)N[C@@H](Cc1ccccc1)C(=O)N[C@]1(C)CCCCCCC=CCCC[C@@](C)(C(=O)N[C@@H](C)C(=O)N[C@@H](C)C(=O)N[C@@H](C)C(=O)N[C@@H](C)C(=O)N[C@@H](C)C(=O)N[C@H](C)C(N)=O)NC(=O)[C@H](CC2CCC2)NC(=O)[C@H](CCC(N)=O)NC(=O)[C@H](C)NC(=O)[C@H](Cc2c[nH]c3ccccc23)NC(=O)[C@H](Cc2ccc(O)cc2)NC(=O)[C@H](CCC(=O)O)NC1=O)[C@@H](C)O [Macrocycle 3, Ac-K(N3)-betaAla-L-T-F-X1a-E-Y-W-A-Q-Cba-X2a-AAAAA-(D-Ala)-NH2(olefinstaple from X1ato X2a)] (Ac-[Lys(N3)][βAla]LTF[R8]EYWAQ[Cba][S5]AAAAA[dA]-NH2; staple 6-13)
logD [1]: 3.15
EC50 ([2]; 0% FBS, 4 h): > 50 µM
EC50 ([2]; 10% FBS, 16 h): > 50 µM
Kd [3]: 0.031 µM
CD (% helicity) [4]: 47%
p53 null Ca Ski proliferation % Max [5]: 10%
EC50 ([6]; 0% FBS, 4 h): > 50 µM
EC50 ([6]; 10% FBS, 16 h): > 50 µM
HCT116 proliferation % Max ([7]; 72 h, 10% serum): 71%
EC50 ([7]; read-out: cellular efficacy in cell proliferation HTC116 p53 positive control cell lines): 0.42 µM
solubility [8]: 157 µM (≈ 340 µg/mL)
